For 17 compounds, IC50 results are on record in patent publication US20160046618A1, “Cyclopropyl Fused Thiazin-2-Amine Compounds as Beta-Secretase Inhibitors and Methods of Use” (AMGEN INC., priority 2014, published 2016).

One assay addresses human recombinant BACE1 (Homo sapiens (Human), UniProt P56817). The assay can be described thus: In vitro enzymatic BACE1 FRET assay. In kind it is biochemical. The settings on record: read-out: IC50 IP (μM) BACE1 enzyme. The method in brief:
(§1)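 Tris addition raises the pH to neutral to stop the reaction before fluorescence is measured at 590 nm emission with 488 nm excitation.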

A further assay concerns the target human recombinant BACE2 (Homo sapiens (Human), UniProt Q9Y5Z0). The assay can be described thus: In vitro enzymatic BACE2 FRET assay. The format is biochemical. The settings on record: read-out: IC50 IP (μM) BACE2 enzyme. The method in brief:
as §1

Assay [1] concerns Aβ40 in conditioned medium of cells stably expressing Amyloid Precursor Protein (APP). Briefly: In vitro BACE-1 cell-based assay (Aβ40 sandwich ELISA). The conditions noted are these: read-out: IC50 IP (μM) BACE1 cell. A digest of the protocol:
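Read-out: time-resolved fluorescence (Streptavidin-Europium) of Aβ40 captured by pAb40 and detected with biotinylated 6E10 from supernatants of APP-stable cells. Cells were exposed to compound for 24 h, 10-point dose response, top dose 100 μM or 10 μM, 0.1% DMSO. IC50 fitted to percent of control.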
For orientation: In an ELISA, binding on a coated surface is turned into a signal by an enzyme label.

A further assay addresses Recombinant Cat D (Homo sapiens (Human), UniProt P07339). The assay can be described thus: In vitro enzymatic Cathepsin D (Cat D) FRET assay. The conditions noted are these: read-out: IC50 IP (μM) CatD. In kind it is biochemical. The method in brief:
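Cleavage of a 20 nM fluorophore/quencher peptide by CHO-expressed recombinant Cat D proceeded for one hour at pH 3.5 (0.05 M citrate, 5 mM CHAPS, 10% DMSO final). Tris addition neutralized the pH to end the reaction. Fluorescence was then measured (ex 500 nm/em 580 nm).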

human recombinant BACE2, sequence (Q9Y5Z0 63-518): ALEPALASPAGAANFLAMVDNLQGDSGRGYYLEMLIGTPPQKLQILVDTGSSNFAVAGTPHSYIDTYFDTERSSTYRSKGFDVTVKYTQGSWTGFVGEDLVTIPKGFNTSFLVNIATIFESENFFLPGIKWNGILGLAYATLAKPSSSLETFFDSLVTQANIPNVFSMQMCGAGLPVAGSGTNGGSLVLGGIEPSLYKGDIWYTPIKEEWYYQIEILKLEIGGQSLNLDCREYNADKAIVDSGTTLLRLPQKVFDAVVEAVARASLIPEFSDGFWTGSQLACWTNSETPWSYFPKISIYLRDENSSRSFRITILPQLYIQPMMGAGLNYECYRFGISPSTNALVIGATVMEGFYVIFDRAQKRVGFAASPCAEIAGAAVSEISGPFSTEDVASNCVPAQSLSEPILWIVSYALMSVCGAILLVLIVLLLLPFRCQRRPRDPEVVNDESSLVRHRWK
Recombinant Cat D, sequence (P07339 65-412): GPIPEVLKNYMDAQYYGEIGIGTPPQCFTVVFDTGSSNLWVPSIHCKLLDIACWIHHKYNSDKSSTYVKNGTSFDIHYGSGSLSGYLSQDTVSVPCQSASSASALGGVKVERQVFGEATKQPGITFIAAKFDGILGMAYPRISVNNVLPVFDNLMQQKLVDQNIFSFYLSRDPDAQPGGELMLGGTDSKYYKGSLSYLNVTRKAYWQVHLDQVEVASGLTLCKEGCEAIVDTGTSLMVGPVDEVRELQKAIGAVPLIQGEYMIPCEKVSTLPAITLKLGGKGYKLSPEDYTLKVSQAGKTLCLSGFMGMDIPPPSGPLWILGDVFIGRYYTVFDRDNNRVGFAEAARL
human recombinant BACE1, sequence (P56817 46-501): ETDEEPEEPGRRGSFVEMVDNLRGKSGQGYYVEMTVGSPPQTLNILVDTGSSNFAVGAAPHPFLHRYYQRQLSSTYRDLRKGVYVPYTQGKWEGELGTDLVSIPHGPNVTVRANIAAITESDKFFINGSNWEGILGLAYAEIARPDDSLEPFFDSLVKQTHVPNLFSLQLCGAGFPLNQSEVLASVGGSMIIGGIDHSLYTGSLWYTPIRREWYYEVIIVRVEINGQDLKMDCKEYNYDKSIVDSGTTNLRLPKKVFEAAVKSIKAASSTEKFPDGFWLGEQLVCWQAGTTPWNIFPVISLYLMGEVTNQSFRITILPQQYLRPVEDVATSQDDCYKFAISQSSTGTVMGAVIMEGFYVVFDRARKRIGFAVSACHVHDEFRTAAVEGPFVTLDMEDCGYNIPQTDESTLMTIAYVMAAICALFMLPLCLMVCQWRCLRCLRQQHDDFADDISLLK

What is called IC50 is the concentration that gives 50% inhibition. As for `COC[C@]12C[C@H]1[C@@](C)(c1cc(Nc3nccc4cc(OCc5nccs5)cnc34)cc(F)c1F)N=C(N)S2` [Example 737, N-(3-((1S,5S,6S)-3-amino-1-(methoxymethyl)-5-methyl-2-thia-4-azabicyclo[4.1.0]hept-3-en-5-yl)-4,5-difluorophenyl)-3-(1,3-thiazol-2-ylmethoxy)-1,7-naphthyridin-8-amine], the concentration for half-maximal inhibition (IC50) was found to be 0.0325 µM at human recombinant BACE1, 0.693 µM at human recombinant BACE2, 0.274 µM in assay [1] and 1500 µM at Recombinant Cat D.
For the compound `COC[C@]12C[C@H]1[C@@](C)(c1cc(NC(=O)c3cnc(OCC(C)(F)F)cn3)cc(F)c1F)N=C(N)S2` [Example 739, N-(3-((1S,5S,6S)-3-amino-1-(methoxymethyl)-5-methyl-2-thia-4-azabicyclo[4.1.0]hept-3-en-5-yl)-4,5-difluorophenyl)-5-(2,2-difluoropropoxy)-2-pyrazinecarboxamide], the IC50 at human recombinant BACE1 is 0.00421 µM; at human recombinant BACE2 it was 0.158 µM; in assay [1], 0.0169 µM; at Recombinant Cat D it was 1460 µM.
As to `COC[C@]12C[C@H]1[C@@](C)(c1cc(NC(=O)c3cnc(OCCCF)cn3)cc(F)c1F)N=C(N)S2` [Example 740, N-(3-((1S,5S,6S)-3-amino-1-(methoxymethyl)-5-methyl-2-thia-4-azabicyclo[4.1.0]hept-3-en-5-yl)-4,5-difluorophenyl)-5-(3-fluoropropoxy)-2-pyrazinecarboxamide], the half-maximal inhibitory concentration (IC50) at human recombinant BACE1 is 0.0055 µM; on human recombinant BACE2, 0.209 µM; in assay [1], 0.0194 µM; on Recombinant Cat D it was 927 µM.
In the same order, the values of `COC[C@]12C[C@H]1[C@@](C)(c1cc(Nc3nccc4cc(OCC#CC(F)(F)F)cnc34)cc(F)c1F)N=C(N)S2` [Example 741, N-(3-((1S,5S,6S)-3-amino-1-(methoxymethyl)-5-methyl-2-thia-4-azabicyclo[4.1.0]hept-3-en-5-yl)-4,5-difluorophenyl)-3-((4,4,4-trifluoro-2-butyn-1-yl)oxy)-1,7-naphthyridin-8-amine] are 0.0269 µM, 0.658 µM, 1.14 µM and 94.4 µM.
As for `C[C@]1(c2cc(NC(=O)c3ccc(Cl)cn3)cc(F)c2F)N=C(N)S[C@@]2(S(C)(=O)=O)C[C@H]21` [Example 742, N-(3-((1R,5S,6S)-3-amino-5-methyl-1-(methylsulfonyl)-2-thia-4-azabicyclo[4.1.0]hept-3-en-5-yl)-4,5-difluorophenyl)-5-chloro-2-pyridinecarboxamide], the IC50 on human recombinant BACE1 was 0.000719 µM; at human recombinant BACE2, below 0.00203 µM; in assay [1], 0.0149 µM; at Recombinant Cat D, 846 µM.
In the same order, the values of `C#CCOc1ccc(C(=O)Nc2cc(F)c(F)c([C@@]3(C)N=C(N)S[C@@]4(S(C)(=O)=O)C[C@H]43)c2)nc1` [Example 743, N-(3-((1R,5S,6S)-3-amino-5-methyl-1-(methylsulfonyl)-2-thia-4-azabicyclo[4.1.0]hept-3-en-5-yl)-4,5-difluorophenyl)-5-(2-propyn-1-yloxy)-2-pyridinecarboxamide] are 0.000395 µM, 0.00543 µM, 0.00971 µM and above 133 µM.
In the same order, the values of `C#CCOc1cnc(C(=O)Nc2cc(F)c(F)c([C@@]3(C)N=C(N)S[C@@]4(S(C)(=O)=O)C[C@H]43)c2)cn1` [Example 744, N-(3-((1R,5S,6S)-3-amino-5-methyl-1-(methylsulfonyl)-2-thia-4-azabicyclo[4.1.0]hept-3-en-5-yl)-4,5-difluorophenyl)-5-(2-propyn-1-yloxy)-2-pyrazinecarboxamide] are 0.00029 µM, 0.0183 µM, 0.000872 µM and 46.5 µM.
Turning to `C[C@]1(c2cc(NC(=O)c3ccc(OCc4ncco4)cn3)cc(F)c2F)N=C(N)S[C@@]2(S(C)(=O)=O)C[C@H]21` [Example 745, N-(3-((1R,5S,6S)-3-amino-5-methyl-1-(methylsulfonyl)-2-thia-4-azabicyclo[4.1.0]hept-3-en-5-yl)-4,5-difluorophenyl)-5-(1,3-oxazol-2-ylmethoxy)-2-pyridinecarboxamide], the half-inhibitory concentration (IC50) on human recombinant BACE1 was determined as 0.000898 µM; on human recombinant BACE2 it was 0.0257 µM; in assay [1], 0.0175 µM; at Recombinant Cat D, 972 µM.
For the compound `C[C@]1(c2cc(NC(=O)c3cnc(OCc4ncco4)cn3)cc(F)c2F)N=C(N)S[C@@]2(S(C)(=O)=O)C[C@H]21` [Example 746, N-(3-((1R,5S,6S)-3-amino-5-methyl-1-(methylsulfonyl)-2-thia-4-azabicyclo[4.1.0]hept-3-en-5-yl)-4,5-difluorophenyl)-5-(1,3-oxazol-2-ylmethoxy)-2-pyrazinecarboxamide], the IC50 on human recombinant BACE1 amounted to 0.000628 µM; on human recombinant BACE2, 0.00522 µM; in assay [1], 0.00356 µM; on Recombinant Cat D, 880 µM.
Turning to `C[C@]1(c2cc(Nc3nccc4nc(OCc5ncco5)cnc34)cc(F)c2F)N=C(N)S[C@@]2(S(C)(=O)=O)C[C@H]21` [Example 747, (1R,5S,6S)-5-(2,3-difluoro-5-((2-(oxazol-2-ylmethoxy)pyrido[3,4-b]pyrazin-5-yl)amino)phenyl)-5-methyl-1-(methylsulfonyl)-2-thia-4-azabicyclo[4.1.0]hept-3-en-3-amine], the concentration for half-maximal inhibition (IC50) on human recombinant BACE1 stood at 0.00242 µM; on human recombinant BACE2, 0.0115 µM; in assay [1], 0.0123 µM; on Recombinant Cat D it was 1190 µM.
In the same order, the values of `C[C@]1(c2cc(NC(=O)c3ccc(Cl)cn3)cc(F)c2F)N=C(N)S[C@@H]2[C@H]1C2(F)F` [Example 748, N-(3-((1R,5S,6R)-3-amino-7,7-difluoro-5-methyl-2-thia-4-azabicyclo[4.1.0]hept-3-en-5-yl)-4,5-difluorophenyl)-5-chloro-2-pyridinecarboxamide] are 0.00807 µM, 0.00284 µM, 0.597 µM and 129 µM.
For `C#CCOc1cnc(C(=O)Nc2ccc(F)c([C@@]3(C)N=C(N)S[C@]4(CO)[C@H]3C4(F)F)c2)cn1` [Example 749, N-(3-((1S,5S,6R)-3-amino-7,7-difluoro-1-(hydroxymethyl)-5-methyl-2-thia-4-azabicyclo[4.1.0]hept-3-en-5-yl)-4-fluorophenyl)-5-(2-propyn-1-yloxy)-2-pyrazinecarboxamide] the same measures were 0.000319 µM, 0.00979 µM, 0.00121 µM and 101 µM.
For `C[C@]1(c2cc(Nc3ncnc4cc(OCc5ncco5)cnc34)ccc2F)N=C(N)S[C@]2(CO)[C@H]1C2(F)F` [Example 750, ((1S,5S,6R)-3-amino-7,7-difluoro-5-(2-fluoro-5-((7-(1,3-oxazol-2-ylmethoxy)pyrido[3,2-d]pyrimidin-4-yl)amino)phenyl)-5-methyl-2-thia-4-azabicyclo[4.1.0]hept-3-en-1-yl)methanol] the same measures were 0.0019 µM, 0.0404 µM, 0.00301 µM and 246 µM.
Take `C[C@]1(c2cc(NC(=O)c3ccc(OCC(F)(F)C(F)F)cn3)ccc2F)N=C(N)S[C@]2(CO)[C@H]1C2(F)F` [Example 751, N-(3-((1S,5S,6R)-3-amino-7,7-difluoro-1-(hydroxymethyl)-5-methyl-2-thia-4-azabicyclo[4.1.0]hept-3-en-5-yl)-4-fluorophenyl)-5-(2,2,3,3-tetrafluoropropoxy)-2-pyridinecarboxamide]: the half-maximal inhibitory concentration (IC50) on human recombinant BACE1 stood at 0.00203 µM; at human recombinant BACE2, 0.255 µM; in assay [1], 0.0338 µM; at Recombinant Cat D, 292 µM.
As to `NC1=N[C@](CF)(c2cc(NC(=O)c3ccc(Cl)cn3)ccc2F)[C@@H]2C3CSC[C@]32S1` (stereo partly drawn) [Example 753, N-(3-((4S,4aS,7aR)-2-amino-4-(fluoromethyl)-4a,4b,5,7-tetrahydro-4H-thieno[3′,4′:2,3]cyclopropa[1,2-e][1,3]thiazin-4-yl)-4-fluorophenyl)-5-chloropicolinamide], the concentration for half-maximal inhibition (IC50) on human recombinant BACE1 came out at 0.00339 µM; at human recombinant BACE2, 0.00304 µM; in assay [1], 0.0964 µM; at Recombinant Cat D, 420 µM.
In the same order, the values of `NC1=N[C@](CF)(c2cc(Nc3nncc4cc(Cl)cnc34)ccc2F)[C@@H]2C[C@@H]2S1` [Example 754, (1S,5S,6S)-5-(5-((3-chloropyrido[2,3-d]pyridazin-8-yl)amino)-2-fluorophenyl)-5-(fluoromethyl)-2-thia-4-azabicyclo[4.1.0]hept-3-en-3-amine] are 0.0454 µM, 0.00588 µM, 0.0781 µM and 844 µM.
In the case of `CCOC(=O)/C=C/[C@]12C[C@H]1[C@@](CF)(c1cc(NC(=O)c3ccc(Cl)cn3)ccc1F)N=C(N)S2` [Example 755, (E)-ethyl 3-((1R,5S,6S)-3-amino-5-(5-(5-chloropicolinamido)-2-fluorophenyl)-5-(fluoromethyl)-2-thia-4-azabicyclo[4.1.0]hept-3-en-1-yl)acrylate], the 50% inhibitory concentration (IC50) at human recombinant BACE1 is 0.00147 µM; on human recombinant BACE2 it was below 0.00203 µM; in assay [1] it was 0.00838 µM; on Recombinant Cat D it was 250 µM.
